According to US20120157401A1, “METHODS FOR TREATING NEUROFIBROMATOSIS” (PTC Therapeutics, Inc., priority 2009, published 2012):
Marks after values point to notes of the source that are not given here.

What was measured:
T47D xenografts = assay: T47D estrogen-sensitive breast cancer xenograft: tumor growth; conditions: 10 mg/kg oral QD
Protocol: Experimental Design. Estrogen pellets (0.72 mg/pellet) were implanted 30 days prior to cell implantation and again 60 days later. T47D estrogen-sensitive breast cancer cells (5×10^6 cells/mouse mixed 1:1 with […] ™) were implanted subcutaneously in female athymic nude mice. […] Tamoxifen was included as a positive control.
Tumor size was measured by calipers at periodic intervals. After 74 days of treatment, the mice were sacrificed.

HT1080 xenografts = assay: BrdU labeling of cells from HT1080 xenografts grown in nude mice; type: in vivo, athymic nude mice; conditions: Day 1, 2, 3; Compound #10 10 mg/kg oral QD, doxorubicin 6 mg/kg IP, bevacizumab 5 mg/kg IP
Protocol: (§1) Experimental Design. HT1080 cells (5×10^6 cells/mouse) were implanted subcutaneously in male athymic nude mice.
The mice were sacrificed 3 hours later, and the tumors collected. A single cell suspension was prepared from the tumor cells. The cells were permeabilized and an antibody to BrdU was used to stain cells that had entered S phase during the labeling period. The proportion of cells actively synthesizing DNA was determined by cell sorting.

[1] = system: human VEGF121 and VEGF165; assay: HT1080 xenograft time course: pathologic plasma human VEGF; type: in vivo; conditions: by Day 1
Protocol: as §1
Tumor size was measured by calipers immediately pre-treatment and at the time of sacrifice on Day 1, 2, or 3 (5 mice per group per day). At sacrifice, the plasma was collected for assay of pathologic human VEGF concentration using an ELISA that recognizes human VEGF121 and VEGF165 (as described in Section 9.1.1.1).

[2] = system: HT1080 tumor cells in vivo; assay: HT1080 xenograft studies of Compound 1205, Compound #10 and Compound 1330: tumor growth; set-up: species or system athymic nude mice
From the text: Experimental Design. HT1080 cells (5×10^6 cells/mouse) were implanted subcutaneously in male athymic nude mice. […] For comparison, Compound #10 was included in this study.

[3] = system: hypoxia-inducible endogenous VEGF expression; assay: Hypoxia-inducible endogenous VEGF expression ELISA in HeLa cells, dose-response EC50 (Table 3); type: cell-based, human; conditions: Homo sapiens; HeLa cells, hypoxic conditions (1% O2), 24-48 hours, VEGF in conditioned media; read-out: ELISA EC50
Method in brief: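 HeLa cells kept 24-48 h under hypoxia (1% O2, 5% CO2, nitrogen balance) with or without compound, e.g. seven concentrations; secreted VEGF in conditioned medium quantified by ELISA against a standard curve. Parallel Cell Titer Glo viability under identical conditions excludes cytotoxicity.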

[4] = system: human VEGF121 and VEGF165; assay: HT1080 xenograft studies #21/#23: intra-tumor and pathologic plasma human VEGF (Compound 1205); type: in vivo; conditions: for Mean difference in human plasma VEGF (%) on Day 14 / Mean difference in human tumor VEGF (%) at Day 14: 14 days
From the text: Experimental Design. HT1080 cells (5×10^6 cells/mice) were implanted subcutaneously into male athymic nude mice. Treatment with vehicle alone or Compound 1205 was initiated when the median tumor volume was approximately 311±88 mm^3. Table 7 and Table 9 (study design #21 and #23) provide the study design for assessing tumor and plasma pathologic VEGF concentrations—each group in each study included eight (8) mice. When the tumors in vehicle-treated mice had reached the target size of ˜1200 mm^3 for study #21 and ˜1500 mm^3 for study #23, all mice in the study were sacrificed, and excised tumors were homogenized in buffer containing protease inhibitors. Both intra-tumor and pathologic plasma human VEGF levels were measured using an ELISA that recognizes human VEGF121 and VEGF165. Intra-tumor VEGF levels were normalized to the total tumor protein concentration and pathologic plasma VEGF levels were expressed in pg/mL. Because smaller tumors produce less VEGF per mg of tumor protein, intra-tumor VEGF levels were normalized to tumor size.

IL-6 = assay: Patients: serum and plasma IL-6 levels; type: in vivo, human
Protocol: Subjects with NF2 may receive continuous daily treatment with a Compound administered at 100 mg per dose, 2 times a day (BID) for up to 1 year, or longer as appropriate, or until tumor progression. […] Tumor shrinkage or an improvement in hearing are indicators of efficacy.
Anti-angiogenic activity: Assessing VEGF concentrations provides a relevant and convenient mechanism-specific marker of Compound activity. […] For example, clinically validated ELISA kits (e.g., from R&D Systems, Minneapolis, Minn.) may be used to measure concentrations of VEGF, VEGF-C, P1GF, VEGFR, and inflammatory mediators such as IL-6 and IL-8. CT scan and MRI scan may also be used to assess peritumoral inflammation or edema.
Blood for VEGF, VEGFR, and Cytokines. Two blood samples (1 for plasma and 1 for serum) may be obtained for assessment of VEGF, VEGFR, and cytokine levels.
After processing, samples may be placed into a freezer at approximately −70° C. An ELISA-based multiplex system may be used to measure plasma VEGF and cytokine levels.

## CC/C(=C(\c1ccccc1)c1ccc(OCCN(C)C)cc1)c1ccccc1 [Tamoxifen, tamoxifen, reference compound]
T47D xenografts
  Mean % Inhibition of Tumor Size vs Vehicle at Day 74: 50%

## COc1cccc2c1C(=O)c1c(O)c3c(c(O)c1C2=O)C[C@@](O)(C(=O)CO)C[C@@H]3O[C@H]1C[C@H](N)[C@H](O)[C@H](C)O1 [doxorubicin, reference compound]
HT1080 xenografts
  BrdU staining of tumor cells (proportion of cells in S phase): decreased the percentage of tumor cells staining with BrdU
[1]
  Pathologic plasma human VEGF levels vs control animals: numerically lower than in control animals

## O=C(Oc1ccc(Cl)cc1)N1CCc2c([nH]c3ccc(Cl)cc23)[C@@H]1c1ccc(OCC[C@H](O)CO)cc1 [Compound 1205]
[2]; HT1080 xenografts, QD
  Lowest dose at which active on tumor growth: 0.3 mg/kg
[2]; Study 21, 0.5 mg/kg QD, Day 14
  Mean difference in tumor growth rate at the Day that the vehicle-treated tumors taken off study: 61%**
[2]; Study 21, 0.5 mg/kg QD, PD, 14 days
  Final mean terminal tumor size in treatment group: 580 mm^3
[2]; Study 21, 3 mg/kg QD, Day 14
  Mean difference in tumor growth rate at the Day that the vehicle-treated tumors taken off study: 80%**
[2]; Study 21, 3 mg/kg QD, PD, 14 days
  Final mean terminal tumor size in treatment group: 379 mm^3
[2]; Study 22, 0.5 mg/kg QD
  Difference vs. vehicle in median number of days to reach 1000 mm^3: 11 days
[2]; Study 22, 0.5 mg/kg QD, Day 11
  Mean difference in tumor growth rate at the Day that the vehicle-treated tumors taken off study: 62%**
[2]; Study 22, 0.5 mg/kg QD, Xeno
  Final mean terminal tumor size in treatment group: 1750 mm^3
[2]; Study 22, 3 mg/kg QD
  Difference vs. vehicle in median number of days to reach 1000 mm^3: 14** Days
[2]; Study 22, 3 mg/kg QD, Day 11
  Mean difference in tumor growth rate at the Day that the vehicle-treated tumors taken off study: 75%**
[2]; Study 22, 3 mg/kg QD, Xeno
  Final mean terminal tumor size in treatment group: 1840 mm^3
[2]; Study 23, 1 mg/kg QD, Day 14
  Mean difference in tumor growth rate at the Day that the vehicle-treated tumors taken off study: 59%**
[2]; Study 23, 1 mg/kg QD, PD, 14 days
  Final mean terminal tumor size in treatment group: 710 mm^3
[2]; Study 24a, 10 mg/kg QD
  Difference vs. vehicle in median number of days to reach 1000 mm^3: 14** Days
[2]; Study 24a, 10 mg/kg QD, Day 11
  Mean difference in tumor growth rate at the Day that the vehicle-treated tumors taken off study: 76%**
[2]; Study 24a, 10 mg/kg QD, Xeno
  Final mean terminal tumor size in treatment group: 1400 mm^3
[2]; Study 24b, 0.3 mg/kg QD
  Difference vs. vehicle in median number of days to reach 1000 mm^3: 0.7 days
[2]; Study 24b, 0.3 mg/kg QD, Day 15
  Mean difference in tumor growth rate at the Day that the vehicle-treated tumors taken off study: 28%
[2]; Study 24b, 0.3 mg/kg QD, Xeno
  Final mean terminal tumor size in treatment group: 1540 mm^3
[3]
  EC50: < 8 nM
[4]; 0.5 or 3 mg/kg QD
  Inhibition of pathologic plasma human VEGF levels: more than 95%
  Inhibition of tumor human VEGF levels: more than 95%
[4]; Study #21, 0.5 mg/kg QD
  Mean difference in human plasma VEGF (%) on Day 14: 97%**
  Mean difference in human tumor VEGF (%) at Day 14: 95%**
[4]; Study #21, 3 mg/kg QD
  Mean difference in human plasma VEGF (%) on Day 14: 99%
  Mean difference in human tumor VEGF (%) at Day 14: 98%**
[4]; Study #23, 1 mg/kg QD
  Mean difference in human plasma VEGF (%) on Day 14: 100%**
  Mean difference in human tumor VEGF (%) at Day 14: 95** %

## COc1ccc([C@H]2c3[nH]c4ccc(Cl)cc4c3CCN2C(=O)Oc2ccc(Cl)cc2)cc1 [#10]
IL-6
  Serum IL-6 levels in patients (FIG. 37): reduced
[3]
  EC50: < 8 nM
